# Laboratory results reported in paper PMC9598407, “Identification of Staphylococcus aureus Penicillin Binding Protein 4 (PBP4) Inhibitors” (Antibiotics, 2022).
# Entries after “also recorded” stand apart in the source; their conditions may differ.
# Key:
# [1] = test system: pbp4 expression in S. aureus CRB; assay: qRT-PCR of pbp4 transcript titers, CRB; format: cell-based, Staphylococcus aureus; conditions: 25 µM compound, 3 h
# Description: Given that each of the six compounds appeared to affect PBP4-mediated antibiotic resistance, we considered that their effects may be modulated by either inhibiting the protein’s function or by reducing pbp4 expression, the latter of which may be readily overcome by regulatory mutations that could in-turn easily result in resistance. Thus, we sought to prioritize compounds that may affect the protein’s function and de-prioritize compounds that affect the protein’s expression. Quantitative real-time reverse transcriptase PCR (qRT-PCR) was used to measure the pbp4 transcript titers within USA300 and CRB cells following compound treatment (Figure 2). […] We chose to focus the remainder of our studies on 9314848 (Figure 3A) because the molecule appeared the more druggable and chemically tractable for downstream structure activity relationship studies.
# PBP4 transcript titers of bacterial cells exposed to putative PBP4 inhibitors were measured using real time quantitative PCR (RT-qPCR), as previously described. […] Bacterial RNA was amplified and measured using PerfeCTa SYBR Green FastMix and qScript cDNA SuperMix kits following the manufacturer’s recommendations (QuantaBio, Beverly, MA, USA). […]
# S. aureus strain CRB = assay: Fractional inhibitory concentration checkerboard, ceftobiprole + putative PBP4 inhibitor, strain CRB; format: cell-based, Staphylococcus aureus
# Description: Fractional inhibitory testing was performed in checkerboard format to determine whether putative PBP4 inhibitors potentiated the antimicrobial effects of β-lactams toward S. aureus strains USA300 and CRB, as previously described. To do so, in triplicate 10^5 CFU of each strain (10 µL) was added to individual wells of a microtiter plate containing 90 µL MH media. […] Plates were incubated at 37 °C for 16–20 h and the lowest concentration of each test agent that inhibited bacterial growth alone or in combination was determined by the naked eye. The fractional inhibitory concentration (FIC) index was calculated using the formula: FIC of A (MIC of drug A in combination/MIC of drug A alone) + FIC B ([…]/MIC of drug B alone). A synergistic interaction was defined as a FICI value of less than 0.5, an additive interaction was defined as a FICI value between 0.5 and 1.0, an indifferent interaction was defined as a FICI value between 1.0 and 4.0, and an antagonistic interaction was defined as a FICI value of more than 4.0 [46].
# Enterococcus faecalis = assay: Ceftobiprole susceptibility with compound, Enterococcus faecalis; format: cell-based; conditions: not shown
# Description: (§1) As a means to further evaluate whether the compound affects PBP4 activity a series of assays were performed.
# Pseudomonas aeruginosa = assay: Ceftobiprole susceptibility with compound, Pseudomonas aeruginosa; format: cell-based; conditions: not shown
# Description: as §1
# S. aureus USA300 = assay: Triton X-100 susceptibility growth study; format: cell-based, Staphylococcus aureus; conditions: wild type USA300, 12.5 µM compound
# Description: Cheung and colleagues have shown that S. aureus tolerance to Triton X-100 is mediated by PBP4 [25]. More directly, wild type cells are tolerant of 0.1% of the detergent, while pbp4 mutant cells are not. Accordingly, as a first test of whether 9314848 may affect PBP4’s cellular function, we evaluated whether compound treated wild type cells phenocopy the growth defect of pbp4 mutant cells in the presence of 0.1% triton X-100 (Figure 3B).
# The effect of putative PBP4 inhibitors on bacterial growth in media supplemented with Triton X-100 was measured, as previously described. […] Cell suspensions were incubated at 37 °C with aeration and cell density (OD600nm) was recorded hourly for a total of 7–8 h.
smiles,measurement,setting,value
CC1CCN(C(=O)c2cccc(NC(=O)Nc3ccc(Cl)cc3)c2)CC1 [Compound 9314848],"pbp4 expression (mRNA titer, qRT-PCR)",[1],did not seem to affect pbp4 expression; also recorded: did not significantly impact pbp4 transcription
same,MIC,"S. aureus strain CRB; Staphylococcus aureus, read-out: CRB Alone Cmpd (putative PBP4 inhibitor MIC alone)",400 µM
same,CRB Combination BPR (ceftobiprole MIC in combination),"S. aureus strain CRB; strain CRB, ceftobiprole combined with the indicated putative PBP4 inhibitor",8 µg/mL
same,CRB Combination Cmpd (compound concentration in combination),"S. aureus strain CRB; strain CRB, compound combined with ceftobiprole",25 µM
same,CRB Fold-decrease in ceftobiprole resistance in combination,"S. aureus strain CRB; strain CRB, in combination with the indicated putative PBP4 inhibitor",16 fold
same,Effect on ceftobiprole susceptibility,Enterococcus faecalis,no effect
same,Effect on ceftobiprole susceptibility,Pseudomonas aeruginosa,no effect
same,Growth in the presence of Triton X-100,S. aureus USA300; 0.1% Triton X-100,exhibited growth defect
same,Growth in the absence of detergent,S. aureus USA300; no Triton X-100,did not display a growth defect
